Two molecules from ChEMBL document CHEMBL5653615 (J Biol Chem, 2013) can be followed below.

Assay [1] has as its target Tyrosine-protein kinase Blk (Homo sapiens) (UniProt P51451). The experiment in a line: Inhibition of human BLK at 1.82 nM by HotSpot assay relative to control.
For assay [2], the target named is T1, Serine/threonine-protein kinase DCLK2 (Homo sapiens) (UniProt Q8N568).
T1 sequence (whole entry): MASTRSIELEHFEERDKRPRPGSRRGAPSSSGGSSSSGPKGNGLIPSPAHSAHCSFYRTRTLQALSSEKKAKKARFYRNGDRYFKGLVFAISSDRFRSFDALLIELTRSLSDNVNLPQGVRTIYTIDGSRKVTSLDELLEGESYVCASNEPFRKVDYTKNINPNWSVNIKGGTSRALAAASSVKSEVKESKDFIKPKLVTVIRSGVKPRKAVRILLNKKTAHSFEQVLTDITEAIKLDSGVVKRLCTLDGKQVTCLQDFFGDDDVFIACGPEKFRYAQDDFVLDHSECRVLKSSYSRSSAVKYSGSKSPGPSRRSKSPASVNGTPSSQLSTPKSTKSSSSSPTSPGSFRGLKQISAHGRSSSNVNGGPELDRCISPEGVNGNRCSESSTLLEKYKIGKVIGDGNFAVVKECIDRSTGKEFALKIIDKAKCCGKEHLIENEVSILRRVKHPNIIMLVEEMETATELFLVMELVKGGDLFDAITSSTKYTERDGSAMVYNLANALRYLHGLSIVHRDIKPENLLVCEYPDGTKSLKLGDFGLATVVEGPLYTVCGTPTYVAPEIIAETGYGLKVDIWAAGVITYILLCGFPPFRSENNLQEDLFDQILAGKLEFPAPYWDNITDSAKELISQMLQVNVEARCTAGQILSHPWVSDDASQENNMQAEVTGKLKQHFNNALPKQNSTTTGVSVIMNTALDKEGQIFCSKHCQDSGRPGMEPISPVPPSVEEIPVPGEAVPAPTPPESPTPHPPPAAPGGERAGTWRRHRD
Put plainly: Inhibition of human DCAMKL2 at 1.82 nM by HotSpot assay relative to control.

The target of assay [3] is T2, cGMP-dependent protein kinase 2 (Homo sapiens) (UniProt Q13237).
T2 sequence (whole entry): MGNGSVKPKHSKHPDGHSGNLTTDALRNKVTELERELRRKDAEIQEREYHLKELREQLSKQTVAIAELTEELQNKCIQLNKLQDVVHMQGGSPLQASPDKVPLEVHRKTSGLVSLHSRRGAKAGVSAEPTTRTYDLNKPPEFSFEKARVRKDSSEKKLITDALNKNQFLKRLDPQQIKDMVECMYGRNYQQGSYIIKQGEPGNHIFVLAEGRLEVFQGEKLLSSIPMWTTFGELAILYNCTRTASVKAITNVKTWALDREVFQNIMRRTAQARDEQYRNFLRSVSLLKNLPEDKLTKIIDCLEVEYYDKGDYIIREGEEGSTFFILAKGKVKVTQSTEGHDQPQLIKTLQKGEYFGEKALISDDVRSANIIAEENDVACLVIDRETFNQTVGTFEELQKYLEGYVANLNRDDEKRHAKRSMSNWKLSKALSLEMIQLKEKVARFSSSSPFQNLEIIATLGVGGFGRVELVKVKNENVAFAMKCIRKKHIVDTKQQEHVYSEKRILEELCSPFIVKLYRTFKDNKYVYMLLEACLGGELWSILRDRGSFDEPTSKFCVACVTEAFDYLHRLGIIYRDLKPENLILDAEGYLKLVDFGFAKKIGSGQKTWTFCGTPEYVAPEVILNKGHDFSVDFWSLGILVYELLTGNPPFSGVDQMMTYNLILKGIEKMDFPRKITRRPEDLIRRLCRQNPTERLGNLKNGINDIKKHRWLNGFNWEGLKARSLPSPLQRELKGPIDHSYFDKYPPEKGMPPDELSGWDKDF
Put plainly: Inhibition of human PRKG2 at 1.82 nM by HotSpot assay relative to control.

Assay [4] concerns the target Tyrosine-protein kinase Yes (Homo sapiens) (UniProt P07947). Put plainly: Inhibition of human YES1 at 1.82 nM by HotSpot assay relative to control.
The target in assay [5] is T3, Protein kinase C epsilon type (Homo sapiens) (UniProt Q02156).
T3 sequence (whole entry): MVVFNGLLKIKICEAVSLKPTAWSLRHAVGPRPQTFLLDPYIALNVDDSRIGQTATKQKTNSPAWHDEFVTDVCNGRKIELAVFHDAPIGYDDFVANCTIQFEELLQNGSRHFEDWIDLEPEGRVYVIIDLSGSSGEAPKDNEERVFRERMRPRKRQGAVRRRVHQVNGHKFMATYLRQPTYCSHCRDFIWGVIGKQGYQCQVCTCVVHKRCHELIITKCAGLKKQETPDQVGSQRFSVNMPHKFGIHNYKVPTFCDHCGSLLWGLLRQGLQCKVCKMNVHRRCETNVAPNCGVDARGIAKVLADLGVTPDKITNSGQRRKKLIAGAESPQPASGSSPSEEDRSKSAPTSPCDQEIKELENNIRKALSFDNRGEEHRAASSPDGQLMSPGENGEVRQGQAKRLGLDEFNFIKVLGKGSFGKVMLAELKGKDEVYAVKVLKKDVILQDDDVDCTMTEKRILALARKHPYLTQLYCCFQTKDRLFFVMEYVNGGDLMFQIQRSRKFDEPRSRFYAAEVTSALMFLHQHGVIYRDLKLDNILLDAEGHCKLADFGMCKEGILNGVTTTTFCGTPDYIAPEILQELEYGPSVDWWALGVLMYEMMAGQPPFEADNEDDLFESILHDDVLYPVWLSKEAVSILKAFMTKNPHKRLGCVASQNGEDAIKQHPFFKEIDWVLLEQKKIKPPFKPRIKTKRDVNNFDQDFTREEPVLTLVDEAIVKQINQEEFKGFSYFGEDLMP
The experiment in a line: Inhibition of human PKCepsilon at 1.82 nM by HotSpot assay relative to control.

In assay [6] the target is Macrophage-stimulating protein receptor (Homo sapiens) (UniProt Q04912). Put plainly: Inhibition of human MST1R at 1.82 nM by HotSpot assay relative to control.
Macrophage-stimulating protein receptor (Homo sapiens), sequence (Q04912 25-304 limits assumed): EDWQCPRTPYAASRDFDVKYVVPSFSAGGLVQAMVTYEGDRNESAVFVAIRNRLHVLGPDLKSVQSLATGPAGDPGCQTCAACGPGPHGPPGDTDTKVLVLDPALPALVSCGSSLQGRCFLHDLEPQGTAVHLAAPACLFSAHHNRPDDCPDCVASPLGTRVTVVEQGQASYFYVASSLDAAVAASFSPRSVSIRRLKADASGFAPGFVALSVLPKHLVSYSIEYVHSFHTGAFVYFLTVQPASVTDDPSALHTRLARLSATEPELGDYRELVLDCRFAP
Macrophage-stimulating protein receptor (Homo sapiens), sequence (Q04912 310-1400 limits assumed): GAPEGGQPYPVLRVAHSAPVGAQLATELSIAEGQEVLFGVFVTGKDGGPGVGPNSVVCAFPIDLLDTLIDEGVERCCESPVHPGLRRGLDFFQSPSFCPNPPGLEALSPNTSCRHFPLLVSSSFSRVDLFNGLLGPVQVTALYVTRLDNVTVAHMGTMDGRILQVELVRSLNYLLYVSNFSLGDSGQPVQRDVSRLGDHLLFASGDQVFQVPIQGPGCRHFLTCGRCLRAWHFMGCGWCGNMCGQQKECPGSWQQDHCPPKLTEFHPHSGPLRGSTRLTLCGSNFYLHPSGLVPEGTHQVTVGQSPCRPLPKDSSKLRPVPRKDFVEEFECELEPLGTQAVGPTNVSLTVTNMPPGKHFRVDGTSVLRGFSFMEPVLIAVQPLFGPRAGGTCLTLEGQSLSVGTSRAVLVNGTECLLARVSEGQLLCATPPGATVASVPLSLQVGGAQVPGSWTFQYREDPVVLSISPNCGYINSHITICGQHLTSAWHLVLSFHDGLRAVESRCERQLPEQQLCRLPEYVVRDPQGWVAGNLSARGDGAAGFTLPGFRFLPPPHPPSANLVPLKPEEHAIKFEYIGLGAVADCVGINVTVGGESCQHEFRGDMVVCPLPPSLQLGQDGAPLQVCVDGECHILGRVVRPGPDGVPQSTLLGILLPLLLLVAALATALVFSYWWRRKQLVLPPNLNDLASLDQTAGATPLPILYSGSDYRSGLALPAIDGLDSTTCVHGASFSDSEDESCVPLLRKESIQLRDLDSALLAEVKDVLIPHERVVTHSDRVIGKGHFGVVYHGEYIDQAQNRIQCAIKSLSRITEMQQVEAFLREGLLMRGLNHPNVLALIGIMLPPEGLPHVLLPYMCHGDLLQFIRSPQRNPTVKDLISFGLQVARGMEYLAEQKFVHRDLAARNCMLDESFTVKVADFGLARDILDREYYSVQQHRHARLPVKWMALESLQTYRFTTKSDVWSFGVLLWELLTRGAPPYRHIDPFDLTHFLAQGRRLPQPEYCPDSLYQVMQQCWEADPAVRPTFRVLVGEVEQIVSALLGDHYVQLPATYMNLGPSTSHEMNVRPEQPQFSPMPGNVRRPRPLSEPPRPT
For assay [7], the target named is Calcium/calmodulin-dependent protein kinase type II subunit delta (Homo sapiens) (UniProt Q13557). The experiment in a line: Inhibition of human CAMK2d at 18.6 nM by HotSpot assay relative to control.
Calcium/calmodulin-dependent protein kinase type II subunit delta (Homo sapiens), sequence (Q13557 whole entry): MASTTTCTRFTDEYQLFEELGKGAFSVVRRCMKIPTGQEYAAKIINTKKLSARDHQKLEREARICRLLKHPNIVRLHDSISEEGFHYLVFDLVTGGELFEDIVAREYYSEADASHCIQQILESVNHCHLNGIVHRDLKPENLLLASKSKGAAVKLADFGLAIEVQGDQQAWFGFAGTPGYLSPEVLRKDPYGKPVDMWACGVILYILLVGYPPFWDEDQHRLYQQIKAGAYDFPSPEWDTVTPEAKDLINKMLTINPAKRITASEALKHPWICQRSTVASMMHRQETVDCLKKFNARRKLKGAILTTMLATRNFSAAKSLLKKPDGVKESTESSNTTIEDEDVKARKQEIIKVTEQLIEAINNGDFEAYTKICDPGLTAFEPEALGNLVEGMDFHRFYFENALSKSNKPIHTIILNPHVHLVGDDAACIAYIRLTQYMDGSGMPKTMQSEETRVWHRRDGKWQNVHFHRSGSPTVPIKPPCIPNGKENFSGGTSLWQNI
The target in assay [8] is Fibroblast growth factor receptor 1 (Homo sapiens) (UniProt P11362). Put plainly: Inhibition of human FGFR1 at 18.6 nM by HotSpot assay relative to control.
Fibroblast growth factor receptor 1 (Homo sapiens), sequence (P11362 22-822 limits assumed): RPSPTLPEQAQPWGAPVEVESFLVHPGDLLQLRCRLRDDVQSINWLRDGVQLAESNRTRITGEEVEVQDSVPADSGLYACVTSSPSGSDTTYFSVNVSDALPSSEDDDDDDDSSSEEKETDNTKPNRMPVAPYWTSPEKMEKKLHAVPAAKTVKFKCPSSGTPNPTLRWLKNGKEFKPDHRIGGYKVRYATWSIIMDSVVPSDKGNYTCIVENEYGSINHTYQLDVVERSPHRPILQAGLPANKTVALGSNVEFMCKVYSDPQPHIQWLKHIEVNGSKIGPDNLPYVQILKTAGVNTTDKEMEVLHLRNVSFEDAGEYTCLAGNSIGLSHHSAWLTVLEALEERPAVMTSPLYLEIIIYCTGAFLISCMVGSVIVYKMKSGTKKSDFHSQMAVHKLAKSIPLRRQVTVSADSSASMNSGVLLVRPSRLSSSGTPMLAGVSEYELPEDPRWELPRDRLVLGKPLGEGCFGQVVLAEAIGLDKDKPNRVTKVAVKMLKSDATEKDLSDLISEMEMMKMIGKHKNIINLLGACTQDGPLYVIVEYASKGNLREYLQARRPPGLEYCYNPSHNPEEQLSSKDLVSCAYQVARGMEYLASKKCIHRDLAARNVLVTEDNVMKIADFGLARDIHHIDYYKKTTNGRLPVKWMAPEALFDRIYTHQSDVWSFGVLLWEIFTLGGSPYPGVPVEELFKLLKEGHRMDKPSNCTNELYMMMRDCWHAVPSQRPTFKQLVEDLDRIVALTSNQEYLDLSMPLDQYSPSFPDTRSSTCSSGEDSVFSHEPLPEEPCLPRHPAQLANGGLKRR

Tyrosine-protein kinase Blk (Homo sapiens), sequence (P51451 2-505 limits assumed): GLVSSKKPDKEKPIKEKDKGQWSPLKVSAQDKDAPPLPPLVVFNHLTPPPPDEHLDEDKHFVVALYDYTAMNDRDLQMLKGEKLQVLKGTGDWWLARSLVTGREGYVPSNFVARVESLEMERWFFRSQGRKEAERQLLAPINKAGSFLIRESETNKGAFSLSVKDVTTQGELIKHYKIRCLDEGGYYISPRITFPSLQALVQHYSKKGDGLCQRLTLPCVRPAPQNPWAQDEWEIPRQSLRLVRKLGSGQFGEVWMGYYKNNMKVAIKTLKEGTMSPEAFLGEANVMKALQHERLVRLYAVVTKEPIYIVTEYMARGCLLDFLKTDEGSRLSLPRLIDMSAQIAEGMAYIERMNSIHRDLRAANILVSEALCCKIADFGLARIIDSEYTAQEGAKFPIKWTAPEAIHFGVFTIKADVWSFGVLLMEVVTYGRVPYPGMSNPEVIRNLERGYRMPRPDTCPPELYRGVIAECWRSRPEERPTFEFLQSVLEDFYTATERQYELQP
Tyrosine-protein kinase Yes (Homo sapiens), sequence (P07947 2-543 limits assumed): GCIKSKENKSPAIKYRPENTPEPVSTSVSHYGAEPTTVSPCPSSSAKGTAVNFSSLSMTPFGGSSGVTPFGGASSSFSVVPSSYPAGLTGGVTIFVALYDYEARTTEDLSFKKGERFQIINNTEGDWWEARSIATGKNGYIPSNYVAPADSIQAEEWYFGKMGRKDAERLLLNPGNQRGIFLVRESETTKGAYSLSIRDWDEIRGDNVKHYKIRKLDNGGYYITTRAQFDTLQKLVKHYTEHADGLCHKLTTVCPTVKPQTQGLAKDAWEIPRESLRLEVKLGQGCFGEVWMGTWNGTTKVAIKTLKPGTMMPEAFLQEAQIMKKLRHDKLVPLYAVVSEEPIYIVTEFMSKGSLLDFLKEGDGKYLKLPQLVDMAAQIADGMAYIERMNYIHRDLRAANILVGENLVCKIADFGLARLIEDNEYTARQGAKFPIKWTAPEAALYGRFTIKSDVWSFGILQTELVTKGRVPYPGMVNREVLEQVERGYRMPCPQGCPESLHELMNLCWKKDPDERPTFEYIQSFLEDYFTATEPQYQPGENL

As a reminder, the inhibition is the relative decrease from the control value, in per cent. On to `C[C@@]1(C(=O)Nc2ccc(F)nc2)CCCN1c1nc(Nc2cc(C3CC3)n[nH]2)c2cccn2n1`, for which the inhibition was -5.89% in assay [1]; 3.94% in assay [2]; -0.02% in assay [3]; 5.36% in assay [4]; -6.93% in assay [5]; 0.1% in assay [6].

For `C[C@]1(O)C[C@@H](c2nc(-c3ccc4ccc(-c5ccccc5)nc4c3)c3c(N)nccn32)C1`, the inhibition in assay [7] was 0.37%; in assay [8], -8.13%.
